This is an account of results in patent US8318805B2, “Modulation of nitric oxide synthases by betaines” (priority 2004, dated 2012).

The test system of experiment [1] is photochemically-induced brain ischemia. The experiment in a line: Photochemically-induced (rose Bengal) focal cerebral ischemia on rats. In kind it is in vivo, rat. The following applies: mean. The source says: The aim of this study was to evaluate the activity of Betaine on thrombus formation in a rat model of photochemically-induced brain ischemia. The method (11) is based on local free radical release exerted by filtered light acting on rose Bengal previously injected in animals. Free radicals are known to induce endothelial damage, followed by platelet aggregation, thrombus formation and vascular occlusion. Briefly, an optic fiber in close contact shone denuded intact skulls (diameter of the illuminated circle 5.4 mm, luminance at the entrance of optic fiber was 5.6×10^6 Ix). After turning on the lamp, an infusion through the caudal vein of a 5 mg/mL (w/v) solution of rose Bengal in saline was started. Two mL of the solution were administered at a flow rate of 0.1 mL/min. After 20 min, at the end of the infusion, the lamp was turned off. [table] Evan's Blue solution (2% w/v) in saline was intravenously injected (1 mL/rat), 18-20 h after the ischemia induction in order to reveal the BBB breakdown. The rats were sacrificed 20 min after Evan's Blue injections and their brains removed. The infarcted area was visually verified, photographed by digital camera and then weighed.

Experiment [2] concerns thrombus formation in mesenteric veinules or arterioles. The experiment in a line: Laser-induced thrombosis in rat mesenteric circulation. The class given is in vivo, Wistar rats. The following applies: oral 60 minutes before laser thrombosis. The source says: Male Wistar rats (200-270 gram) were used for the experiments. […] After the medial laparotomy the intestinal loop was placed on the microscope table. Vascular lesions were produced by Argon laser […] This shot causes a well limited lesion of the vascular endothelium (only few cells are destroyed) exposing the thrombogenetic under-layer of the sub-endothelium. The contact of blood with this surface triggers the adherence of platelets via glycoproteins Ib & IIb IIIa. This adherence of platelets is followed by their activation: they form pseudopods and secrete the content of their granules. As a consequence thrombus formation occurs within few seconds. This platelet rich thrombus rapidly enlarges under influence of blood flow, embolises (i.e. is disrupted and carried by the flow from the thrombogenic area) before a new thrombus being formed again on the injured surface. […] Up to four shots can be fired if no emboli (platelet thrombus) are readily appearing. The number of successive laser beams and emboli formed are then recorded. In the presence of an antithrombotic compound a higher number of laser shots are necessary to induce thrombus formation. Similarly, a smaller number of emboli (platelet thrombi) are formed as compared with controls and the duration of the embolisation is also shorter. […] Similarly, a higher number of emboli (platelet thrombi) are formed as compared with controls and the duration of the embolisation is also longer. Betaine is orally administrated to animals at 50 mg/kg, 60 minutes before laser thrombosis.

Experiment [3] has as its system whole blood platelet aggregation. The experiment in a line: Whole blood aggregation, ADP 5 μM. In kind it is in vivo, Wistar rats. The note with it: oral.
Procedure: Blood is sampled by intracardiac puncture on trisodium citrate solution (3, 8% sodium citrate/blood 1/9 vv) using the 2 syringes technique.
ADP 5 μM in final concentration is used as agonist. Amplitudes are expressed in ohms (Ω) and velocities in ohm/min (Ω/min)
The mark [4] stands for this setting: ASA 50 mg/kg iv 30 min before ischemia induction, n = 5.
Setting [5] is: ASA 200 mg/kg iv 30 min before ischemia induction, n = 10.
[6] abbreviates: Celebrex 10 mg + saline, individual rats.
Setting [7] is: Celebrex 10 mg + saline, mean of 6 rats.
Setting [8] is: NS 398 5 mg + saline, individual rats.
The mark [9] stands for this setting: NS 398 5 mg + saline, mean of 6 rats.

Where “and” joins values, the source holds several entries; their conditions need not be identical. Identical values can stand only once.

With `CC(=O)Oc1ccccc1C(=O)O` [ASA, Acetylsalicylic acid, reference compound], in experiment [1] (setting [4]), the “Red Ischemic Area, Excluding Blue Evan Penumbra” value was found to be 0.322 cm^2 and the “Weight of ischemic area” value is recorded as 35.0 mg. For the same compound, in experiment [1] (setting [5]), the “Red Ischemic Area, Excluding Blue Evan Penumbra” value amounted to 0.29 cm^2 and the “Weight of ischemic area” value is listed as 40 mg.
For the compound `Cc1ccc(-c2cc(C(F)(F)F)nn2-c2ccc(S(N)(=O)=O)cc2)cc1` [Celebrex ®], in experiment [2] (setting [6]), the duration of embolisation was 4 (2×) and 5 (3×) and 9; the emboli was 9 and 8 and 11 (2×) and 17 and 12; the laser beams was 2 (3×) and 1 (3×). Moreover, in experiment [2] (setting [7]), the duration of embolisation came to 5.33, the emboli came out at 11.33 and the laser beams turned out to be 1.5. Also, in experiment [3] (setting [6]), the amplitude was 13 Ω (3×) and 12 Ω and 14 Ω and 21 Ω; the velocity was 8 Ω/min (2×) and 7 Ω/min (2×) and 13 Ω/min and 9 Ω/min. Besides, in experiment [3] (setting [7]), the amplitude is recorded as 14.33 Ω and the velocity is listed as 8.67 Ω/min.
Turning to `CS(=O)(=O)Nc1ccc([N+](=O)[O-])cc1OC1CCCCC1` [NS 398], in experiment [2] (setting [8]), the duration of embolisation was 5 (2×) and 4 (2×) and 3 and 2; the emboli was 11 and 9 (2×) and 10 and 7 and 8; the laser beams is 2 (5×) and 1. In experiment [2] (setting [9]), the duration of embolisation is on record as 3, the emboli was found to be 9 and the laser beams is recorded as 1.83. In experiment [3] (setting [8]), the amplitude was 9 Ω (2×) and 10 Ω and 2 Ω and 12 Ω and 6 Ω; the velocity is 9 Ω/min and 7 Ω/min (4×) and 5 Ω/min. In experiment [3] (setting [9]), the amplitude is 8 Ω and the velocity was 7 Ω/min.
